The text below walks through data of ChEMBL document CHEMBL5500393, “Discovery and Optimization of Novel SaFabI Inhibitors as Specific Therapeutic Agents for MRSA Infection” (J Med Chem, 2024).

Data set [1] is described as follows: Half life in female Sprague-Dawley rat at 5 mg/kg, iv measured upto 24 hrs by LC-MS analysis. The data set is classed as ADME, organism-based. The note with it: in vivo.
For data set [2], the system named is Staphylococcus aureus. In words: Antimicrobial activity against methicillin-susceptible Staphylococcus aureus ATCC25923 measured after 24 hrs by CLSI protocol based microdilution method. The class given is functional. Background: Dilution methods test growth across graded concentrations, often in twofold steps.
The nature of data set [3]: Acute toxicity in female BALB/c mouse assessed as abnormal behaviour at 800 mg/kg, po measured after 14 days. The data set is classed as organism-based. As to conditions: in vivo, 336 h, time 14 day.
The nature of data set [4]: Hemolytic activity in sheep erythrocytes assessed as hemolysis at 64 ug/ml incubated for 1 hr by microplate reader based analysis relative to control. The class given is toxicity, cell-based, Ovis aries, Erythrocyte. The note with it: at 64 µg/mL, read-out: Activity.
Data set [5] has as its system Acinetobacter baumannii. Nature of the data set: Antimicrobial activity against Acinetobacter baumannii ATCC19606 measured after 24 hrs by CLSI protocol based microdilution method. The data set is classed as functional.
For data set [6], the system named is Staphylococcus aureus. In words: Antimicrobial activity against […] Staphylococcus aureus USA300 measured after 24 hrs by CLSI protocol based microdilution method. The data set is classed as functional.
In data set [7] the test system is Cell membrane. Nature of the data set: Induction of cell membrane damage in methicillin-resistant Staphylococcus aureus ATCC33591 assessed as appearance of inward wrinkling in cell surface at 1 times MIC measured after 30 mins by TEM analysis. The class given is cell membranes.
For data set [8], the system named is Staphylococcus aureus. Nature of the data set: In vivo antibacterial activity against methicilin-resistant Staphylococcus aureus ATCC33591 infected in BALB/c mouse skin infection model assessed as alleviation of skin lesions at 10 mg/kg administered daily for 4 days by H and E staining based analysis. The note with it: time 4.0 day. The class given is functional, organism-based.

Data set [9] deals with Staphylococcus aureus. In words: In vivo antibacterial activity against methicilin-resistant Staphylococcus aureus ATCC33591 infected in BALB/c mouse skin infection model assessed as decrease in lesion size at 10 mg/kg administered daily for 4 days (reference value: 43.4 mm2). The class given is functional. As to conditions: time 4 day.
Data set [10] relates to Staphylococcus aureus. In words: In vivo antibacterial activity against methicilin-resistant Staphylococcus aureus ATCC33591 infected in BALB/c mouse skin infection model assessed as decrease in lesion size at 5 mg/kg administered daily for 4 days (reference value: 43.4 mm2). The class given is functional. The note with it: time 4 day.
Data set [11] concerns Staphylococcus aureus. In words: In vivo antibacterial activity against methicilin-resistant Staphylococcus aureus ATCC33591 infected in BALB/c mouse skin infection model assessed as reduction in bacterial load administered daily for 4 days. The note with it: dose 5-20 mg/kg, time 4.0 day. The class given is functional, organism-based.
Data set [12] concerns Staphylococcus aureus. Nature of the data set: In vivo antibacterial activity against methicilin-resistant Staphylococcus aureus ATCC33591 infected in BALB/c mouse skin infection model assessed as as appearance of inflammatory cell infiltrates at 10 mg/kg administered daily for 4 days by H and E staining based analysis. The data set is classed as functional, organism-based. As to conditions: time 4.0 day.

The subject of data set [13] is Staphylococcus aureus. In words: In vivo antibacterial activity against methicilin-resistant Staphylococcus aureus ATCC33591 infected in BALB/c mouse skin infection model assessed as decrease in lesion size at 20 mg/kg administered daily for 4 days (reference value: 43.4 mm2). The data set is classed as functional. The note with it: time 4 day.
The subject of data set [14] is Staphylococcus aureus. Nature of the data set: In vivo antibacterial activity against methicilin-resistant Staphylococcus aureus ATCC33591 infected in BALB/c mouse skin infection model assessed as log reduction in bacterial count at 10 mg/kg administered daily for 4 days. The data set is classed as functional. As to conditions: time 4 day.
Data set [15] relates to Staphylococcus aureus. Nature of the data set: In vivo antibacterial activity against methicilin-resistant Staphylococcus aureus ATCC33591 infected in BALB/c mouse skin infection model assessed as effect on body weight loss at 5 to 20 mg/kg administered daily for 4 days. The data set is classed as functional, organism-based. As to conditions: dose 5-20 mg/kg, time 4.0 day.

For data set [16], the system named is Staphylococcus aureus. In words: In vivo antibacterial activity against methicilin-resistant Staphylococcus aureus ATCC33591 infected in BALB/c mouse skin infection model assessed as damaged tissue at 10 mg/kg administered daily for 4 days by H and E staining based analysis. The class given is functional, organism-based. As to conditions: time 4.0 day.
Data set [17] has as its system Staphylococcus aureus. Nature of the data set: In vivo antibacterial activity against methicilin-resistant Staphylococcus aureus ATCC33591 infected in BALB/c mouse skin infection model assessed as reduction in skin lesions at 10 mg/kg administered daily for 4 days (reference value: 51.6 mm2). The data set is classed as functional. The note with it: time 4 day.
Data set [18] concerns Staphylococcus aureus. Nature of the data set: In vivo antibacterial activity against methicilin-resistant Staphylococcus aureus ATCC33591 infected in BALB/c mouse skin infection model assessed as reduction in bacterial load at 5 mg/kg administered daily for 4 days. The class given is functional. As to conditions: time 4 day.
Data set [19] has as its system Staphylococcus aureus. Nature of the data set: In vivo antibacterial activity against methicilin-resistant Staphylococcus aureus ATCC33591 infected in BALB/c mouse skin infection model assessed as adverse effect at 5 to 20 mg/kg administered daily for 4 days. The class given is functional, organism-based. The note with it: dose 5-20 mg/kg, time 4.0 day.
Data set [20] relates to Staphylococcus aureus. In words: In vivo antibacterial activity against methicilin-resistant Staphylococcus aureus ATCC33591 infected in BALB/c mouse skin infection model assessed as restoration of cell morphology at 20 mg/kg administered daily for 4 days by H and E staining based analysis. As to conditions: time 4.0 day. The data set is classed as functional, organism-based.

The test system of data set [21] is Staphylococcus aureus. Nature of the data set: In vivo antibacterial activity against methicilin-resistant Staphylococcus aureus ATCC33591 infected in BALB/c mouse skin infection model assessed as reduction in number of inflammatory cells at 20 mg/kg administered daily for 4 days by H and E staining based analysis. The data set is classed as functional, organism-based. The note with it: time 4.0 day.

Data set [22] addresses T1, Enoyl-[acyl-carrier-protein] reductase [NADPH] FabI (Staphylococcus aureus) (UniProt Q6GI75).
T1 sequence (whole entry): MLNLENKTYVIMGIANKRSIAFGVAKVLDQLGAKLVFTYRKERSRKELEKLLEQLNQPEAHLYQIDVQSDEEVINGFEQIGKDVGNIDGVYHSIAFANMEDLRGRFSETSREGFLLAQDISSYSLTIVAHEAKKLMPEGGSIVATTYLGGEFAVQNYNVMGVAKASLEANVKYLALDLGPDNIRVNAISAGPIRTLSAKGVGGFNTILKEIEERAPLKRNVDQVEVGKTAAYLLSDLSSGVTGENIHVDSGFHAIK
In words: Binding affinity to N-terminal his 6 tagged Staphylococcus aureus Fabi (1 to […] residues) expressed in Escherichia coli BL21 assessed as change in melting temperature at 80 uM incubated for 20 mins in presence of NADPH by differential scanning fluorescence assay. A general note: DSF heats the sample and reads unfolding from a dye or from intrinsic fluorescence.

Data set [23] deals with Staphylococcus aureus. Nature of the data set: In vivo antibacterial activity against methicilin-resistant Staphylococcus aureus ATCC33591 infected in BALB/c mouse skin infection model assessed as reduction in bacterial load at 10 mg/kg administered daily for 4 days. The class given is functional. As to conditions: time 4 day.
For data set [24], the system named is Staphylococcus aureus. In words: In vivo antibacterial activity against methicilin-resistant Staphylococcus aureus ATCC33591 infected in BALB/c mouse skin infection model assessed as reduction in area of injury at 20 mg/kg administered daily for 4 days by H and E staining based analysis. As to conditions: time 4.0 day. The class given is functional, organism-based.

Data set [25] concerns Staphylococcus aureus. In words: In vivo antibacterial activity against methicilin-resistant Staphylococcus aureus ATCC33591 infected in BALB/c mouse skin infection model assessed as reduction in bacterial load at 20 mg/kg administered daily for 4 days. The note with it: time 4 day. The data set is classed as functional.

The structures appear in SMILES notation. Converted amounts (≈) assume the structure as drawn. The source made the active and inactive calls. No cut-off for these calls is given here. Bounds are passed on as bounds.

Take `COc1c(Br)cccc1N1CC(c2nc3ccccc3n2C)CC1=O` (configuration not stated): the t1/2 in data set [1] turned out to be 1.1 h. Moreover, the minimum inhibitory concentration (MIC) (commonly the least concentration at which growth counts as inhibited) is 2 µg/mL (≈ 5 µM) in [2], greater than 32 µg/mL in data set [5] and 1 µg/mL (≈ 2.5 µM) in data set [6]. Moreover, the Activity entry in data set [3] is “Non-Toxic”. Also, the hemolysis at 1 h, 64 ug/ml in [4] was 1.9%. Moreover, in [7], the result was Active.

Consider `Cc1c(Br)cccc1N1CC(c2nc3ccccc3n2C)CC1=O` (configuration not stated), for which the outcome in data set [8], in data set [12], in data set [16], in [20], in data set [21] and in data set [7] was Active. For the same molecule, the result in data set [24] was Active. The Activity is 20.9 mm2 in data set [9]; 31.1 mm2 in data set [10]; “Dose-Dependent Effect” in [11]; 13 mm2 in data set [13]; “Non-Toxic” in data set [3]; 27.5 mm2 in data set [17]. For the same molecule, the “log(activity)” value in [14] is on record as 4.9; in data set [18], -1.8; in [23], -4.5; in data set [25], -6.2. The molecule further had a t1/2 in [1] of 1.1 h. In addition, the MIC in data set [2] was 1 µg/mL (≈ 2.6 µM); in data set [5] it was greater than 32 µg/mL; in [6] it was 1 µg/mL (≈ 2.6 µM). In addition, the outcome in [15] and in data set [19] was inactive. Besides, the hemolysis at 1 h, 64 ug/ml in data set [4] is 3.1%. Moreover, the ΔTm (usually the shift of the melting midpoint relative to a reference) in [22] is 11.8 °C.
